From patent US10494602B1, “Functional astrocytes and cortical neurons from induced pluripotent stem cells and methods of use thereof” (The Board of Trustees of the Leland Stanford Junior …, priority 2015, dated 2019)
Entries after “also recorded” stand apart in the source; their conditions may differ.

How the values were obtained:
[1] = tested on: voltage-gated Na+ channels; type: cell-based, human
[2] = tested on: Wnt processing and secretion; conditions: cell-free assay; read-out: 1050, inhibition of Wnt processing and secretion; cited from earlier work
[3] = tested on: Wnt-stimulated cellular responses; conditions: cited from earlier work
BMP signaling = conditions: cited from earlier work
[4] = target: element-binding protein (CBP) (Homo sapiens, UniProt Q92793); conditions: cited from earlier work
PORCN [5] = conditions: HEK293 cells; read-out: IC50, Wnt3A-mediated activation of a multimerized TCF-binding site driving luciferase; cited from earlier work
TNKS2 = target: T1, TNKS2 (Homo sapiens, UniProt Q9H2K2); conditions: cited from earlier work
T1 sequence (Q9H2K2 1-1166): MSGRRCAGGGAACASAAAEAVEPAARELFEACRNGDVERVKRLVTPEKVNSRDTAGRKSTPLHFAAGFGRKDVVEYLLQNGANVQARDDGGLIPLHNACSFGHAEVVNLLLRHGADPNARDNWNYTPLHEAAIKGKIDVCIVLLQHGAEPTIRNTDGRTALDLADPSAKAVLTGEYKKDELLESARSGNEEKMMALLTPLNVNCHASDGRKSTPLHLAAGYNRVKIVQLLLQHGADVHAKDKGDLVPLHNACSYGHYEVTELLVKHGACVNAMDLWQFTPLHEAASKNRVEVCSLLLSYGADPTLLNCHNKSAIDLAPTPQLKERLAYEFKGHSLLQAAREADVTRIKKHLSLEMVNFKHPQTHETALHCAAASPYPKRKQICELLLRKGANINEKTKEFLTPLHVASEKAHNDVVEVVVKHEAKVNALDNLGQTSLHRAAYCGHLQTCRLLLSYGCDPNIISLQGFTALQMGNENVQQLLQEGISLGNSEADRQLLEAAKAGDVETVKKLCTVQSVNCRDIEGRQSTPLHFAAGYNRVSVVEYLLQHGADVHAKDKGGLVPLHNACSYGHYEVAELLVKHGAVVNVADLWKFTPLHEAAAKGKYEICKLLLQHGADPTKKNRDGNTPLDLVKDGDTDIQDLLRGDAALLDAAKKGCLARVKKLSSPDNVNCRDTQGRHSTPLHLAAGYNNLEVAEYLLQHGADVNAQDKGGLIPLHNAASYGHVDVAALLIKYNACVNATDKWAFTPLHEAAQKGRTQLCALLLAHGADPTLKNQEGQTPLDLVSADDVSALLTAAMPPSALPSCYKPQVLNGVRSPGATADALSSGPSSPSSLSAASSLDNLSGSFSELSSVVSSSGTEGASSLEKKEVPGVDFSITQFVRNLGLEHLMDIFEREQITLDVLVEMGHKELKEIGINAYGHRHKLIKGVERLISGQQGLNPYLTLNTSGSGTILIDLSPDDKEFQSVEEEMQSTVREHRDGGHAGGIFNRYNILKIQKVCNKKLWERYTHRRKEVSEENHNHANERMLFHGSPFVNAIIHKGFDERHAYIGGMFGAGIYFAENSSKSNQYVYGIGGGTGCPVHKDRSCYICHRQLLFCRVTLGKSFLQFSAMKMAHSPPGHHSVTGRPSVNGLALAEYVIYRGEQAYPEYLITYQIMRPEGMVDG

Wnt signaling = conditions: TM3 cells; read-out: IC50, inhibition of Wnt signaling; cited from earlier work
PORCN [6] = conditions: read-out: EC50, Porcn inhibition; cited from earlier work
[7] = tested on: spontaneous synaptic activity (EPSCs) of neurons in hCS slices; assay: Spontaneous EPSCs in acute hCS slice preparation (whole cell recording); type: cell-based, human; conditions: kynurenic acid 1 mM bath application; n=6 cells, P=0.0008
Procedure: hCS were removed from Neurobasal-B27 media, quickly fixed to a block of 4% agarose, and covered in ice-cold oxygenated (95% 02 and 5% CO2) ACSF containing 126 mM NaCl, 2.5 mM KCl, 1.25 mM NaH2PO4, 2 mM MgCl2, 2 mM CaCl2), 26 mM NaHCO3and 10 mM glucose. 250 μm thick slices were cut using a Leica VT1200 vibrating microtome. After slicing, sections were moved to continuously oxygenated warm (˜32° C.) ACSF. Slices were incubated in warm ACSF for at least one hour prior to recording.
Whole cell patch clamp recordings were made at 22-25° C. Slices were superfused at a rate of 3 ml/min. Patch-clamp recordings were made using a MultiClamp 700A amplifier with Clampex 10.3 software. 3-5 MO borosilicate glass recording electrodes were filled with internal solution containing 120 mM potassium gluconate, 11 mM KCl, 1 mM MgCl2, 1 mM CaCl2, 10 mM HEPES, 1 mM EGTA, pH adjusted to 7.4 with KOH (290 mOsm). To determine if EPSCs recorded in voltage clamp are glutamate dependent, the glutamate receptor blocker kynurenic acid (1 mM) was added to the bath solution following at minimum 5 min of baseline recording. Evoked responses were produced by extracellular monopolar tungsten electrode placed 100-300 μm from the whole cell recording. […]

Chain of element-binding protein (CBP) (Q92793 whole entry): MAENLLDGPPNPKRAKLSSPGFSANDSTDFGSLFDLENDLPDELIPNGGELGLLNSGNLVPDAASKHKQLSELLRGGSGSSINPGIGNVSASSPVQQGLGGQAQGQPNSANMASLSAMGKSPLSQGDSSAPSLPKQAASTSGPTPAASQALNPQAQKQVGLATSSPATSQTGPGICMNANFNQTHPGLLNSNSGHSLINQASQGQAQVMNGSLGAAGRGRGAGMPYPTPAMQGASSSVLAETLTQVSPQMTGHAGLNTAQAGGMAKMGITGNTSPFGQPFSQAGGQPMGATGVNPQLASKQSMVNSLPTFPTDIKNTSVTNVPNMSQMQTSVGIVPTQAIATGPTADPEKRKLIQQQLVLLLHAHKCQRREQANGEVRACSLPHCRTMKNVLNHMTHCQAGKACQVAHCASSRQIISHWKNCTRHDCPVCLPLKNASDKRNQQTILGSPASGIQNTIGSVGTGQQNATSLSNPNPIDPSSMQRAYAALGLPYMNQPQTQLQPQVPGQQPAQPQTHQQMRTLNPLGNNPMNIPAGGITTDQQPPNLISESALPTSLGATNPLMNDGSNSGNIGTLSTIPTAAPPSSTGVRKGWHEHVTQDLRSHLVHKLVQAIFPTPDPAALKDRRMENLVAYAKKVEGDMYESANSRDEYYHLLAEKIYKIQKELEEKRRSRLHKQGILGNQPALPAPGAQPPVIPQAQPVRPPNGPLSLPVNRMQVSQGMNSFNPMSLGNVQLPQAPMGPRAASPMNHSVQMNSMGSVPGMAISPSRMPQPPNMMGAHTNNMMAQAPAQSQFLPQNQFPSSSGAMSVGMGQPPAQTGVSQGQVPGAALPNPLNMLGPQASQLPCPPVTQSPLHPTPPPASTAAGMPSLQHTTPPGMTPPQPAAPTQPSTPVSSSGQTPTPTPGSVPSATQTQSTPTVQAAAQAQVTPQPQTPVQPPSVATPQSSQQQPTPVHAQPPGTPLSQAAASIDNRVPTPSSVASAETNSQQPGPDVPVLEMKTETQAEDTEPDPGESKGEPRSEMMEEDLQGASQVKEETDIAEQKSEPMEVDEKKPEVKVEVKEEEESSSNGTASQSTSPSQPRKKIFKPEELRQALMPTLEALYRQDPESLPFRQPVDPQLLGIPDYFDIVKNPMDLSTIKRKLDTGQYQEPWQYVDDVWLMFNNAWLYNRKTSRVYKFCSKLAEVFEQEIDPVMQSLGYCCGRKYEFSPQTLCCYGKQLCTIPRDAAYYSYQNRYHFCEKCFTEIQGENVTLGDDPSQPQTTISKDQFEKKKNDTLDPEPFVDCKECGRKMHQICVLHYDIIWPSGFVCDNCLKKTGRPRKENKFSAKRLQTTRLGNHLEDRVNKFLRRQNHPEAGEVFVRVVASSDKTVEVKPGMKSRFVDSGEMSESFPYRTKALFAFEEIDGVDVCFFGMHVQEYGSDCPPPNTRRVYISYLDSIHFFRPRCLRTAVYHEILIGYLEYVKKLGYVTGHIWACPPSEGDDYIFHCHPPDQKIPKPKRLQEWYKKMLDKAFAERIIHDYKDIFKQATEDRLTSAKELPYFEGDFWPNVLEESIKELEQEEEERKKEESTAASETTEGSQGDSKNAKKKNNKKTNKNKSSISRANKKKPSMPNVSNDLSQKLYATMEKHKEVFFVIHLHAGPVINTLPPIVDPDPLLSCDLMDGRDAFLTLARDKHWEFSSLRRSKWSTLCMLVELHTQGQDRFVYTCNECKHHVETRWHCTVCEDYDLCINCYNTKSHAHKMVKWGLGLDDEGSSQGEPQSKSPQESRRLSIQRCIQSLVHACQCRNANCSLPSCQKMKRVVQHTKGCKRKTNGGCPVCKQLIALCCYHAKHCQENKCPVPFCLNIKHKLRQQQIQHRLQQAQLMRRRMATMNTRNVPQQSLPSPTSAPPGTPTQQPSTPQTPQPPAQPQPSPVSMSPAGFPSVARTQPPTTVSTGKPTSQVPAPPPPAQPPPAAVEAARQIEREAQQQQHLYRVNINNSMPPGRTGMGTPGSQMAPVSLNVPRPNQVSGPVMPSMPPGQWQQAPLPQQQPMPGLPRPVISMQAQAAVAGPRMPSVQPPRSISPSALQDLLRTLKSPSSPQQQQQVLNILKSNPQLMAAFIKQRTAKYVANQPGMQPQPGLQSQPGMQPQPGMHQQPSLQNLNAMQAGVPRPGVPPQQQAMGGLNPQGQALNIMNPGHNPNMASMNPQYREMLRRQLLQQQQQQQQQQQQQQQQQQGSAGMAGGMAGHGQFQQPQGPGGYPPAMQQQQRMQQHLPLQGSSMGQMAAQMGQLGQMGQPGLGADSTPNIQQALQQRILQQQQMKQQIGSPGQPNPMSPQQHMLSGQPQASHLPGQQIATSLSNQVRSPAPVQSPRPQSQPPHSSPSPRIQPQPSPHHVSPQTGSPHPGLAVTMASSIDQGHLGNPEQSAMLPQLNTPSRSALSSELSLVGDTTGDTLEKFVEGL

For `NC1=N[C@H](O)[C@H]2[C@H]3O[C@]4(O)O[C@@H]([C@@H](O)[C@@]2(N1)[C@@H]4O)[C@]3(O)CO` [TTX, tetrodotoxin], the “block of transient inward voltage-gated Na+ current” value [1] was “blocks”.
In the case of `Cc1ccc2nc(NC(=O)CSc3nc4c(c(=O)n3-c3ccccc3)SCC4)sc2c1` [IWP-2], the IC50 [2] is given as 27 nM and the “effect against Wnt-stimulated cellular responses” value [3] is given as “no effect”.
For `NC(=O)c1ccc(-c2nc(-c3ccc4c(c3)OCO4)c(-c3ccccn3)[nH]2)cc1` [SB-431542], the “effect on BMP signaling” value (BMP signaling) is given as “no effect”.
For `O=C1[C@H](Cc2ccc(O)cc2)N2C(=O)CCN(C(=O)NCc3ccccc3)[C@H]2CN1Cc1cccc2ccccc12` [ICG-001], the IC50 [4] is given as 3000 nM.
In the case of Wnt-059 (C59), the IC50 (PORCN [5]) is given as 0.074 nM.
For `COc1ccc(-n2c(SCCCN3C(=O)c4cccc5cccc(c45)C3=O)nnc2-c2ccncc2)cc1` [WIKI4], the IC50 (TNKS2) is given as 15 nM.
In the case of `Cc1cc(-c2ncc(CC(=O)Nc3ccc(-c4cnccn4)cn3)cc2C)ccn1` [LGK-974], the IC50 (Wnt signaling) is listed as 0.4 nM.
For `O=C(CSc1nc2c(c(=O)n1-c1ccccc1)SCC2)Nc1ccc(-c2ccccc2)cn1` [IWP-L6], the EC50 (PORCN [6]) is given as 0.5 nM.
In the case of `O=C(O)c1cc(=O)c2ccccc2[nH]1` [kynurenic acid], the “spontaneous synaptic activity (EPSCs) in sliced hCS” value [7] is reported as “significantly reduced; also recorded: blocked”.
